Data reported in US9125828B2, “MOC compositions” (Givaudan SA, priority 2010, dated 2015).

Tested on: axillary malodour
Assay: Deodorancy of pro-perfumes compared with their breakdown products
Format: in vivo
Settings: pro perfumes that undergo scission when exposed to UV light; no data given
Description: The effectiveness of compositions of the present invention comprising 2-Ethoxy-4-formylphenyl (E)-3-(2-hydroxyphenyl) acrylate and/or (E)-Dec-9-enyl 3-(2-hydroxyphenyl) acrylate, two group A materials, in axillary malodour counteracting deodorant is particularly surprising. These materials are pro perfumes that undergo scission into other compounds when exposed to UV light, this is disclosed in EP 936211. The use of materials that require light activation is counter-intuitive for application in underarm products such as deodorants and antiperspirants.

Structure (SMILES) | deodorancy relative to breakdown products
CCOc1cc(C=O)ccc1OC(=O)/C=C/c1ccccc1O [2-Ethoxy-4-formylphenyl (E)-3-(2-hydroxyphenyl)acrylate] | better deodorancy than their breakdown products
C=CCCCCCCCCOC(=O)/C=C/c1ccccc1O [(E)-Dec-9-enyl 3-(2-hydroxyphenyl)acrylate] | better deodorancy than their breakdown products
